In patent publication US20230054926A1, “COMPOSITIONS AND METHODS FOR MICROBIAL TREATMENT OF SKIN DISORDERS” (DUPONT US HOLDING, LLC, priority 2020, published 2023):

Test system: M. globosa
Test: Flow cytometry analysis of M. globosa growth inhibition by cell free fermentate
Type: cell-based, Malassezia globosa
Conditions: Example 6, 200 μl supernatant + 800 μl diluted culture, vs respective media control, amphotericin B 2.5 μg/ml
Experimental: The growth medium for Malassezia species was a modified Leeming & Notman (mLN) media that contained 10 g/L bacteriological peptone, 2 g/L yeast extract, 8 g/L desiccated ox bile, 10 ml/L glycerol, 0.5 g/L glycerol monostearate, 5 ml/L Tween-60 and 20 ml/L palm oil.
Lipid emulsion by the presence of lipids and surfactants in the mLN media as well as cell clumping phenotype of Malassezia spp, make it difficult to monitor cell growth by optical density measurement or colony counting after spreading a culture aliquot on plates, To circumvent this issue, flow cytometry with cell staining dyes was used to quantitatively measure cell growth in lipid emulsion media. […]
At different time points, 50 μl aliquot from each culture was subjected to mild sonication with amplitude of 5 and 1 sec on/off cycle for 30 sec using Qsonica 0700 (Qsonica, Newtown, Conn.). […] The samples were analyzed by flow cytometry using a Novocyte Quanteon (Asea). SytoBC, a cell permeable DNA/RNA intercalating dye was excited by the 488 laser and detected using a 530/30 bandwidth filter. Concanavalin A, a mannose binding lectin labeled with alexaFluor 640, was excited with the 637 nm laser and detected using a 660/20 bandwidth filter. […] Malassezia cell counts were determined by gating on high sytoBC, high ConA events and recording the event/ul values for each sample. […]

C[C@@H]1[C@H](O)[C@@H](C)/C=C/C=C/C=C/C=C/C=C/C=C/C=C/[C@H](O[C@@H]2O[C@H](C)[C@@H](O)[C@H](N)[C@@H]2O)C[C@@H]2O[C@](O)(C[C@@H](O)C[C@@H](O)[C@H](O)CC[C@@H](O)C[C@@H](O)CC(=O)O[C@H]1C)C[C@H](O)[C@H]2C(=O)O [Amphotericin B, amphotericin B]
% M. globosa growth inhibition (Day 1): 4% | % M. globosa growth inhibition (Day 3): 88%
